IC50 data for 13 molecules are collected here from ChEMBL document CHEMBL1129063, “Design, synthesis, and biochemical evaluation of N-substituted maleimides as inhibitors of prostaglandin endoperoxide synthases” (J Med Chem, 1996).

Some results are limits rather than exact numbers.

The assay addresses Cyclooxygenase (Homo sapiens, UniProt P35354+P23219). The assay is described as follows: Inhibitory activity against Prostaglandin G/H synthase.
Broadly, the IC50 is the concentration that gives 50% inhibition. As to `O=C(O)c1ccc(CN2C(=O)C=CC2=O)cc1`, the IC50 turned out to be 27 µM. `O=C(O)CCCCCCCCCCN1C(=O)C=CC1=O` displayed a 50% inhibitory concentration (IC50) of 40 µM. `Cc1ccccc1CN1C(=O)C=CC1=O` displayed a 50% inhibitory concentration (IC50) of 50 µM. Turning to `CC(=O)Oc1ccc(N2C(=O)C=CC2=O)cc1C(=O)O`, the IC50 turned out to be 29 µM. In turn, `O=C(O)CCCCCCCCCCCN1C(=O)C=CC1=O` gave a half-maximal inhibitory concentration (IC50) of 140 µM. Molecule `CCCCCCCCCN1C(=O)C=CC1=O` registered a 50% inhibitory concentration (IC50) of 12 µM. Regarding `O=C(O)CCCCCN1C(=O)C=CC1=O`, the IC50 is > 800 µM. Consider `CC(=O)Oc1cc(N2C(=O)C=CC2=O)ccc1C(=O)O`, for which the half-maximal inhibitory concentration (IC50) was > 200 µM. The same measure for `O=C(O)CCCCCCN1C(=O)C=CC1=O`: 570 µM. Turning to `CCCCCCCCCCN1C(=O)C=CC1=O`, the half-inhibitory concentration (IC50) was found to be 14 µM. Molecule `O=C(O)CCCCCCCCCN1C(=O)C=CC1=O` returned a half-inhibitory concentration (IC50) of 37 µM.

For the molecule `O=C(O)CCCCCCCCN1C(=O)C=CC1=O`, the half-maximal inhibitory concentration (IC50) turned out to be 26 µM. This IC50 and that of the molecule before are within 1.5-fold of each other. For the molecule `O=C(O)c1ccccc1OCCN1C(=O)C=CC1=O`, the concentration for half-maximal inhibition (IC50) stood at 250 µM.
